Reference: PubChem BioAssay AID1918949 (Molecular Pharmacology Branch, DTP, NCI, 2023)
Where “and” joins values, the source holds several entries; their conditions need not be identical. Equal values may be shown once.

System: K24384-001-R-PDC complex spheroid viability
Test: Anticancer human tumor K24384-001-R-PDC patient-derived pancreatic adenocarcinoma cell line growth inhibition
Details: for viability, T/C: stronger effect = lower value
Method in brief: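 Drug combinations with the LSD1 inhibitor iadademstat tested on tumor cells co-cultured as spheroids with endothelial cells and mesenchymal stem cells. Concentrations descended in half-log increments from clinical Cmax or 10 microM.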

[1] = curve of first compound, second compound 0.1 µM
[2] = curve of first compound, second compound 0.316 µM
[3] = curve of first compound, second compound 1 µM
[4] = curve of first compound, second compound 3.16 µM
[5] = curve of first compound, second compound 10 µM
[6] = second compound 0.1 µM, first compound 0.0316 µM
[7] = second compound 0.1 µM, first compound 0.1 µM
[8] = second compound 0.316 µM, first compound 0.0316 µM
[9] = second compound 0.316 µM, first compound 0.1 µM
[10] = second compound 1 µM, first compound 0.0316 µM
[11] = second compound 1 µM, first compound 0.1 µM
[12] = second compound 3.16 µM, first compound 0.0316 µM
[13] = second compound 3.16 µM, first compound 0.1 µM
[14] = second compound 10 µM, first compound 0.0316 µM
[15] = second compound 10 µM, first compound 0.1 µM
[16] = second compound 0.1 µM, first compound 0.316 µM
[17] = second compound 0.1 µM, first compound 1 µM
[18] = second compound 0.1 µM, first compound 3.16 µM
[19] = second compound 0.1 µM, first compound 10 µM
[20] = second compound 0.316 µM, first compound 0.316 µM
[21] = second compound 0.316 µM, first compound 1 µM
[22] = second compound 0.316 µM, first compound 3.16 µM
[23] = second compound 0.316 µM, first compound 10 µM
[24] = second compound 1 µM, first compound 0.316 µM
[25] = second compound 1 µM, first compound 1 µM
[26] = second compound 1 µM, first compound 3.16 µM
[27] = second compound 1 µM, first compound 10 µM
[28] = second compound 3.16 µM, first compound 0.316 µM
[29] = second compound 3.16 µM, first compound 1 µM
[30] = second compound 3.16 µM, first compound 3.16 µM
[31] = second compound 3.16 µM, first compound 10 µM
[32] = second compound 10 µM, first compound 0.316 µM
[33] = second compound 10 µM, first compound 1 µM
[34] = second compound 10 µM, first compound 3.16 µM
[35] = second compound 10 µM, first compound 10 µM
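Further: spheroids exposed to agents for seven days before luminescence viability reading.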
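Wherever viability, T/C is given: 100% = DMSO vehicle control viability.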

CC(C)CC(NC(=O)CNC(=O)c1cc(Cl)ccc1Cl)B1OC(=O)CC(CC(=O)O)(C(=O)O)O1 (configuration not stated) + NC1CCC(NC2CC2c2ccccc2)CC1
IC50 [1]: 0.00755 µM | IC50 [2]: 0.00578 µM | IC50 [3]: 0.00608 µM | IC50 [4]: 0.00559 µM | IC50 [5]: 0.005 µM | viability, T/C (second compound 0.1 µM, first compound 0.000316 µM): 100% | viability, T/C (second compound 0.1 µM, first compound 0.001 µM): 90.2% | viability, T/C (second compound 0.1 µM, first compound 0.00316 µM): 82.7% | viability, T/C (second compound 0.1 µM, first compound 0.01 µM): 40.4% | viability, T/C [6]: 3.3% | viability, T/C [7]: 0.72% | viability, T/C (second compound 0.316 µM, first compound 0.000316 µM): 97.4% | viability, T/C (second compound 0.316 µM, first compound 0.001 µM): 91.9% | viability, T/C (second compound 0.316 µM, first compound 0.00316 µM): 75.4% | viability, T/C (second compound 0.316 µM, first compound 0.01 µM): 27.2% | viability, T/C [8]: 3.1% | viability, T/C [9]: 0.77% | viability, T/C (second compound 1 µM, first compound 0.000316 µM): 89.9% | viability, T/C (second compound 1 µM, first compound 0.001 µM): 87.7% | viability, T/C (second compound 1 µM, first compound 0.00316 µM): 75.1% | viability, T/C (second compound 1 µM, first compound 0.01 µM): 30.9% | viability, T/C [10]: 4.13% | viability, T/C [11]: 0.7% | viability, T/C (second compound 3.16 µM, first compound 0.000316 µM): 92.1% | viability, T/C (second compound 3.16 µM, first compound 0.001 µM): 78.3% | viability, T/C (second compound 3.16 µM, first compound 0.00316 µM): 74.1% | viability, T/C (second compound 3.16 µM, first compound 0.01 µM): 26.5% | viability, T/C [12]: 2.82% | viability, T/C [13]: 0.68% | viability, T/C (second compound 10 µM, first compound 0.000316 µM): 92.9% | viability, T/C (second compound 10 µM, first compound 0.001 µM): 75.7% | viability, T/C (second compound 10 µM, first compound 0.00316 µM): 69.8% | viability, T/C (second compound 10 µM, first compound 0.01 µM): 22.8% | viability, T/C [14]: 2.54% | viability, T/C [15]: 0.55%

CC1COCCN1c1cc(C2(S(C)(=N)=O)CC2)nc(-c2ccnc3[nH]ccc23)n1 (configuration not stated) + NC1CC1c1ccc(-c2cccc(O)c2)cc1
IC50 [1]: 1.55 µM | IC50 [2]: 1.38 µM | IC50 [3]: 1.18 µM | IC50 [4]: 1.32 µM | IC50 [5]: 0.776 µM | viability, T/C [6]: 89.4% | viability, T/C [7]: 108% | viability, T/C [16]: 95.3% | viability, T/C [17]: 58.8% | viability, T/C [18]: 33.7% | viability, T/C [19]: 38.1% | viability, T/C [8]: 85.8% | viability, T/C [9]: 85.9% | viability, T/C [20]: 72.3% | viability, T/C [21]: 57.7% | viability, T/C [22]: 34% | viability, T/C [23]: 36.4% | viability, T/C [10]: 79.5% | viability, T/C [11]: 73.9% | viability, T/C [24]: 76.5% | viability, T/C [25]: 53% | viability, T/C [26]: 29.1% | viability, T/C [27]: 34.1% | viability, T/C [12]: 82.4% | viability, T/C [13]: 77.4% | viability, T/C [28]: 73.2% | viability, T/C [29]: 56.7% | viability, T/C [30]: 27.9% | viability, T/C [31]: 32% | viability, T/C [14]: 87.7% | viability, T/C [15]: 81.5% | viability, T/C [32]: 70% | viability, T/C [33]: 45.2% | viability, T/C [34]: 29.1% | viability, T/C [35]: 31.1%

CC1COCCN1c1cc(C2(S(C)(=N)=O)CC2)nc(-c2ccnc3[nH]ccc23)n1 (configuration not stated) + NC1CCC(NC2CC2c2ccccc2)CC1
IC50 [1]: 2.45 µM | IC50 [2]: 1.63 µM | IC50 [3]: 2.32 µM | IC50 [4]: 1.83 µM | IC50 [5]: 1.71 µM | viability, T/C [6]: 82.9% | viability, T/C [7]: 79.5% | viability, T/C [16]: 91.1% | viability, T/C [17]: 71.5% | viability, T/C [18]: 43.2% | viability, T/C [19]: 44.5% | viability, T/C [8]: 95.2% | viability, T/C [9]: 90.1% | viability, T/C [20]: 107% | viability, T/C [21]: 57.5% | viability, T/C [22]: 45.5% | viability, T/C [23]: 34.3% | viability, T/C [10]: 84.4% | viability, T/C [11]: 88% | viability, T/C [24]: 84.3% | viability, T/C [25]: 67% | viability, T/C [26]: 44% | viability, T/C [27]: 38.9% | viability, T/C [12]: 80.6% | viability, T/C [13]: 97.6% | viability, T/C [28]: 82.9% | viability, T/C [29]: 60.4% | viability, T/C [30]: 41.8% | viability, T/C [31]: 34.4% | viability, T/C [14]: 79.6% | viability, T/C [15]: 74% | viability, T/C [32]: 76.8% | viability, T/C [33]: 60.4% | viability, T/C [34]: 36.9% | viability, T/C [35]: 39%

CC1(C)CCC(CN2CCN(c3ccc(C(=O)NS(=O)(=O)c4ccc(NCC5CCOCC5)c([N+](=O)[O-])c4)c(Oc4cnc5[nH]ccc5c4)c3)CC2)=C(c2ccc(Cl)cc2)C1
viability, T/C (compound 0.0316 µM): 95.9% and 81.9% | viability, T/C (compound 0.1 µM): 97.3% and 90.8% | viability, T/C (compound 0.316 µM): 96.5% and 92.7% | viability, T/C (compound 1 µM): 106% and 78.1% | viability, T/C (compound 3.16 µM): 63.5% and 67.6% | viability, T/C (compound 10 µM): 0.81% and 1.22% | IC50 (curve of compound): 4.05 µM and 4.23 µM
